The results in this text go back to patent EP0670315A1, “Triazole oxime derivatives having antimycotic acitivity” (priority 1994, dated 1995).

Values after ≈ are worked out from the molar mass of the structure shown. Like-named read-outs stand apart in the source and are kept apart here.

The subject of data set [1] is Aspergillus fumigatus strain IFM0063. Nature of the data set: Minimum Inhibitory Concentration (MIC), agar plate dilution method. It counts as cell-based. The following applies: Sabouraud's dextrose agar, 30°C for 2 days, visual growth. The protocol: (§1) MIC measurements were conducted by an agar plate dilution method. Stated specifically, Aspergillus fumigatus strains IFM0063 and IFM4942 were cultured on a potato dextrose agar medium at 27°C for 10 days, and the growing conidia were suspended in a sterile physiological saline containing 0.05% Tween 80 to give a concentration of 10⁸ - 10⁹ conidia per ml. The suspension was conditioned in a Sabouraud's dextrose broth medium at a concentration of 10⁵ spores per ml and a 5-µl aliquot of the culture was inoculated into a drug-containing Sabouraud's dextrose agar medium and cultured at 30°C for 2 days. The growth of fungi was observed visually and the minimum concentration of the test drug that could inhibit the fungal growth was designated as its MIC.

The subject of data set [2] is Aspergillus fumigatus strain IFM4942. The description is as above. The following applies: Sabouraud's dextrose agar, 30°C for 2 days, visual growth. It counts as cell-based. How it is done: as §1
The subject of data set [3] is Candida albicans strain IFM40009. Nature of the data set: Treatment of infection, protocol 3: cyclophosphamide-immunosuppressed mice infected with Candida albicans, oral treatment, survival. It counts as in vivo. Particulars: ICR male mice immunosuppressed with cyclophosphamide 100 mg/kg i.p. twice, i.v. infection 1 × 10⁶ cells, oral once after an hour of infection, survival at 7th day, read-out: ED₅₀. The protocol:
Experimentally prepared immunosuppressed mice were infected with Candida albicans; they were then administered selected compounds of the invention orally and the therapeutic effect of the compounds was measured.
Stated specifically, ICR male mice (4-wk old) in groups each consisting of 10 animals were administered cyclophosphamide intraperitoneally at a dose of 100 mg/kg; four days later, the mice were similarly administered cyclophosphamide intraperitoneally to be rendered experimentally immunosuppressed. Simultaneously with the second shot of cyclophosphamide, Candida albicans strain IFM40009 was administered to the tail vein of each animal at a concentration of 1 × 10⁶ cells per animal to induce infection. Each test compound was administered orally to the mice once after an hour of infection.
The number of mice that survived at the 7th day of the infection was counted (the day of infection was day "zero") and the ED₅₀ of each test compound was calculated by the Litchfield-Wilcoxon method to estimate its therapeutic effect.

Data set [4] concerns Aspergillus fumigatus strain IFM41944. Description: Treatment of infection, protocol 1: mice infected with Aspergillus fumigatus, oral treatment, survival. It counts as in vivo. Particulars: for ED50: Aspergillus fumigatus, IFM41944, ICR male mice, i.v. infection 1 × 10⁷ conidia, oral one hour after infection and following four days once a day, survival at 7th day, Litchfield-Wilcoxon, read-out: ED₅₀. The protocol: (§2) Mice infected with Aspergillus fumigatus were administered selected compounds of the invention orally and their therapeutic effect was measured. Stated specifically, ICR male mice (4-wk old) in groups each consisting of 10 animals were injected with Aspergillus fumigatus strain IFM41944 by injecting it into the tail vein at a concentration of 1 × 10⁷ conidia per animal. Each test compound was administered orally to the mice one hour after the infection and for the following four continuous days on a once-a-day basis. The number of mice that survived at the 7th day of the infection was counted (the day of infection was day "zero") and the ED₅₀ of each test compound was calculated by the Litchfield-Wilcoxon method to estimate its therapeutic effect.

Data set [5] is described as follows: Toxicity test, repeated oral administration to mice. It counts as in vivo. Particulars: 4-wk old mice, 5 consecutive days, 100 mg/kg. The protocol:
The four selected compounds of the invention (those prepared in Examples 1, 2, 9 and 30) were administered orally to 4-wk old mice for 5 consecutive days at a dose of 100 mg/kg.

Data set [6] relates to Candida albicans strain IFM40009. Nature of the data set: Treatment of infection, protocol 2: mice infected with Candida albicans, oral treatment, survival. Particulars: ICR male mice, i.v. infection 1 × 10⁶ cells, oral once after an hour of infection, survival at 7th day, Litchfield-Wilcoxon. It counts as in vivo. How it is done:
as §2, with “Candida albicans” for “Aspergillus fumigatus”, “IFM40009” for “IFM41944”, “10⁶ cells” for “10⁷ conidia”, “once after an” for “one”, “of infection.” for “after the infection and for the following four continuous days on a once-a-day basis.”

Where [7] appears, read: Aspergillus fumigatus, IFM0063, 48 h, read-out: MIC.
The mark [8] stands for this setting: Aspergillus fumigatus, IFM4942, 48 h, read-out: MIC.

On to `COCON=C(C(C)C)C1(C(O)(Cn2cncn2)c2ccc(F)cc2F)CC1` (single isomer, unassigned; (-)) [Example 4, (-)-1-[1-[1-(2,4-difluorophenyl)-1-hydroxy-2-(1H-1,2,4-triazol-1-yl)ethyl]cyclopropyl]-2-methyl-1-propanone O-(methoxymethyl)oxime], for which the MIC in data set [1] and in data set [2] was 12.5 µg/mL (≈ 31.7 µM) each time.
Consider `CON=C(C(C)C)C1(C(O)(Cn2cncn2)c2ccc(F)cc2F)CC1` (single isomer, unassigned; (-)) [Example 6, (-)-1-[1-[1-(2,4-difluorophenyl)-1-hydroxy-2-(1H-1,2,4-triazol-1-yl)ethyl]cyclopropyl]-2-methyl-1-propanone O-methyl oxime], for which the MIC in data set [1] (setting [7]) and in data set [2] (setting [8]) was 3.13 µg/mL (≈ 8.59 µM) each time.
In the case of `COCON=C(C(C)C)C1(C(O)(Cn2cncn2)c2ccc(F)cc2F)CC1` (stereo not shown) [Example 1, 1-[1-[1-(2,4-difluorophenyl)-1-hydroxy-2-(1H-1,2,4-triazol-1-yl)ethyl]cyclopropyl]-2-methyl-1-propanone O-(methoxymethyl)oxime], the ED50 in data set [3] turned out to be 4.9 mg/kg; in data set [4] it was 30.3 mg/kg. For the same compound, in data set [5], the evidence for abnormality entry is “no evidence for abnormality”. Further, the MIC in data set [1] (setting [7]) and in data set [2] (setting [8]) was 25 µg/mL (≈ 63.4 µM) in each case.
As to `CCCC(=NOCOC)C1(C(O)(Cn2cncn2)c2ccc(F)cc2F)CC1` (stereo not shown) [Example 8], the ED50 in data set [4] came to 27.7 mg/kg. Also, the MIC was 12.5 µg/mL (≈ 31.7 µM) in data set [1] (setting [7]) and 25 µg/mL (≈ 63.4 µM) in data set [2] (setting [8]).
As to `CCCC(=NOC)C1(C(O)(Cn2cncn2)c2ccc(F)cc2F)CC1` (stereo not shown) [Example 9], the ED50 in data set [4] was 20.2 mg/kg. Moreover, in data set [5], the evidence for abnormality result is “no evidence for abnormality”. For the same compound, the MIC in data set [1] (setting [7]) and in data set [2] (setting [8]) was 6.25 µg/mL (≈ 17.2 µM) in each case.
As to `CCC(=NOCOC)C1(C(O)(Cn2cncn2)c2ccc(F)cc2F)CC1` (stereo not shown) [Example 10], the MIC worked out at 6.25 µg/mL (≈ 16.4 µM) in data set [1] (setting [7]) and 12.5 µg/mL (≈ 32.9 µM) in data set [2] (setting [8]).
On to `CCC(=NOC)C1(C(O)(Cn2cncn2)c2ccc(F)cc2F)CC1` (stereo not shown) [Example 11], for which the MIC in data set [1] (setting [7]) and in data set [2] (setting [8]) was 3.13 µg/mL (≈ 8.93 µM) each time.
`COCON=C(C1CC1)C1(C(O)(Cn2cncn2)c2ccc(F)cc2F)CC1` (stereo not shown) [Example 15]: the MIC in data set [1] (setting [7]) and in data set [2] (setting [8]) was 12.5 µg/mL (≈ 31.9 µM) throughout.
On to `CON=C(C)C(C)(C)C(O)(Cn1cncn1)c1ccc(F)cc1F` (stereo not shown) [Example 21], for which the MIC in data set [1] (setting [7]) and in data set [2] (setting [8]) was 3.13 µg/mL (≈ 9.25 µM) each time.
As to `CCC(=NOC)C(C)(C)C(O)(Cn1cncn1)c1ccc(F)cc1F` (stereo not shown) [Example 22], the MIC came out at 1.56 µg/mL (≈ 4.43 µM) in data set [1] (setting [7]) and 3.13 µg/mL (≈ 8.88 µM) in data set [2] (setting [8]).
As to `CC(=NO)C(C)(C)C(O)(Cn1cncn1)c1ccc(F)cc1F` (stereo not shown) [Example 29], the values for the MIC in data set [1] (setting [7]) and in data set [2] (setting [8]) were 6.25 µg/mL (≈ 19.3 µM) and 12.5 µg/mL (≈ 38.5 µM), respectively.
For `CCON=C(C(C)C)C1(C(O)(Cn2cncn2)c2ccc(F)cc2F)CC1` (stereo not shown) [Example 38] the same measures were 12.5 µg/mL (≈ 33 µM) and 12.5 µg/mL (≈ 33 µM).
Take `CC(C)C(=NOCC#N)C1(C(O)(Cn2cncn2)c2ccc(F)cc2F)CC1` (stereo not shown) [Example 40]: the MIC in data set [1] (setting [7]) and in data set [2] (setting [8]) was 12.5 µg/mL (≈ 32.1 µM) throughout.
With `CSCON=C(C(C)C)C1(C(O)(Cn2cncn2)c2ccc(F)cc2F)CC1` (stereo not shown) [Example 41], the MIC in data set [1] (setting [7]) and in data set [2] (setting [8]) was 12.5 µg/mL (≈ 30.5 µM) throughout.
In the case of `CCCON=C(C(C)C)C1(C(O)(Cn2cncn2)c2ccc(F)cc2F)CC1` (stereo not shown) [Example 42], the MIC in data set [1] (setting [7]) and in data set [2] (setting [8]) was 25 µg/mL (≈ 63.7 µM) in each case.
The compound `CC(C)C(=NOCCBr)C1(C(O)(Cn2cncn2)c2ccc(F)cc2F)CC1` (stereo not shown) [Example 44, 1-[1-[1-(2,4-difluorophenyl)-1-hydroxy-2-(1H-1,2,4-triazol-1-yl)ethyl]cyclopropyl]-2-methyl-1-propanone O-(2-bromoethyl)oxime] came in with an ED50 in data set [6] of 14.6 mg/kg. The MIC in data set [1] (setting [7]) and in data set [2] (setting [8]) was 12.5 µg/mL (≈ 27.3 µM) each time.
`CCCC(=NOCn1cncn1)C1(C(O)(Cn2cncn2)c2ccc(F)cc2F)CC1` (stereo not shown) [Example 46]: the ED50 in data set [6] is 15.7 mg/kg.
In data set [6], `C#CCON=C(CC)C1(C(O)(Cn2cncn2)c2ccc(F)cc2F)CC1` (stereo not shown) [Example 51] yielded an ED50 of 11.3 mg/kg. The MIC in data set [1] (setting [7]) and in data set [2] (setting [8]) was 3.13 µg/mL (≈ 8.36 µM) throughout.
Take `CCC(=NOCSC)C1(C(O)(Cn2cncn2)c2ccc(F)cc2F)CC1` (stereo not shown) [Example 53]: the ED50 in data set [6] was determined as 13.5 mg/kg. The MIC in data set [1] (setting [7]) was found to be 1.56 µg/mL (≈ 3.93 µM); in data set [2] (setting [8]), 3.13 µg/mL (≈ 7.89 µM).
For the compound `CCC(=NOCCBr)C1(C(O)(Cn2cncn2)c2ccc(F)cc2F)CC1` (stereo not shown) [Example 55], the ED50 in data set [6] was 14.7 mg/kg. Further, the MIC in data set [1] (setting [7]) and in data set [2] (setting [8]) was 3.13 µg/mL (≈ 7.06 µM) each time.
In the case of `CCCCON=C(CC)C1(C(O)(Cn2cncn2)c2ccc(F)cc2F)CC1` (stereo not shown) [Example 56], in data set [6], the ED50 was 14.7 mg/kg. Besides, the MIC in data set [1] (setting [7]) and in data set [2] (setting [8]) was 6.25 µg/mL (≈ 15.9 µM) throughout.
In data set [6], `CCC(=NOCn1cncn1)C1(C(O)(Cn2cncn2)c2ccc(F)cc2F)CC1` (stereo not shown) [Example 58] gave an ED50 of 13.2 mg/kg.
With `CCC(=NOCc1ccncc1)C1(C(O)(Cn2cncn2)c2ccc(F)cc2F)CC1` (stereo not shown) [Example 59], the ED50 in data set [6] amounted to 10.7 mg/kg. Further, the MIC in data set [1] (setting [7]) and in data set [2] (setting [8]) was 6.25 µg/mL (≈ 14.6 µM) in each case.
Consider `COC(OC)ON=C(C(C)C)C1(C(O)(Cn2cncn2)c2ccc(F)cc2F)CC1` (stereo not shown) [Example 72, 1-[1-[1-(2,4-difluorophenyl)-1-hydroxy-2-(1H-1,2,4-triazol-1-yl)ethyl]cyclopropyl]-2-methyl-1-propanone O-(dimethoxymethyl)oxime], for which, in data set [6], the ED50 was 13.5 mg/kg.
For the compound `COC(C)(OC)ON=C(C(C)C)C1(C(O)(Cn2cncn2)c2ccc(F)cc2F)CC1` (stereo not shown) [Example 73, 1-[1-[1-(2,4-difluorophenyl)-1-hydroxy-2-(1H-1,2,4-triazol-1-yl)ethyl]cyclopropyl]-2-methyl-1-propanone O-(1-dimethoxyethyl)oxime], the ED50 in data set [6] came out at 5.8 mg/kg.
Turning to `COC(C)(C)ON=C(C(C)C)C1(C(O)(Cn2cncn2)c2ccc(F)cc2F)CC1` (stereo not shown) [Example 74, 1-[1-[1-(2,4-difluorophenyl)-1-hydroxy-2-(1H-1,2,4-triazol-1-yl)ethyl]cyclopropyl]-2-methyl-1-propanone O-(1-methoxy-1-methylethyl)oxime], in data set [6], the ED50 amounted to 8.9 mg/kg.
Still for that read-out and setting: then `COC(C)ON=C(C(C)C)C1(C(O)(Cn2cncn2)c2ccc(F)cc2F)CC1` (stereo not shown) [Example 75, 1-[1-[1-(2,4-difluorophenyl)-1-hydroxy-2-(1H-1,2,4-triazol-1-yl)ethyl]cyclopropyl]-2-methyl-1-propanone O-(1-methoxyethyl)oxime], with 8.6 mg/kg.
Consider `OC(Cn1cncn1)(Cn1cncn1)c1ccc(F)cc1F` [Fluconazole, fluconazole, reference compound], for which the ED50 in data set [3] is 54.4 mg/kg; in data set [6] it was 11.7 mg/kg; in data set [4], over 100 mg/kg. The “antimycotic action in Aspergillus fumigatus infected animal models” value in data set [4] (doses up to 100 mg/kg, oral, mice) is “did not show any antimycotic action”. Moreover, the MIC in data set [1] (setting [7]) and in data set [2] (setting [8]) was over 100 µg/mL each time.
On to `CCC(C)n1ncn(-c2ccc(N3CCN(c4ccc(OCC5COC(Cn6cncn6)(c6ccc(Cl)cc6Cl)O5)cc4)CC3)cc2)c1=O` (stereo not shown) [Itraconazole, itraconazole, reference compound], for which the ED50 in data set [4] is over 100 mg/kg.

Usually MIC stands for the smallest concentration in the dilution series that meets the test's criterion for growth inhibition.
